{
  "source": "ChEMBL document CHEMBL4616670",
  "about": "“Phosphine Oxides from a Medicinal Chemist's Perspective: Physicochemical and in Vitro Parameters Relevant for Drug Discovery” (J Med Chem, 2020)",
  "key": {"[1]": {"assay": "Acid dissociation constant, pKa of the compound by UV absorption spectra analysis or potentiometric titration technique", "format": "physicochemical"}, "[2]": {"assay": "in vitro", "details": "human, liver microsomes", "description": "Half life in human liver microsomes at 1 uM incubated prior to NADPH addition by LC-MS/MS analysis"}, "[3]": {"assay": "in vitro", "details": "human, liver microsomes", "remark": "listed apart in the source", "description": "Stability in human liver microsomes at 1 uM incubated prior to NADPH addition by LC-MS/MS analysis relative to hepatic blood flow"}, "[4]": {"assay": "physchem", "details": "pH 6.8 buffer"}, "[5]": {"assay": "physchem", "details": "pH 6.8 buffer", "remark": "listed apart in the source"}, "[6]": {"assay": "in vitro", "details": "human, Caco-2", "description": "Permeability across apical to basolateral side in human Caco2 cells measured up to 2 hrs by LC-MS/MS analysis or scintillation counting method"}, "[7]": {"assay": "in vitro", "details": "human, Caco-2", "remark": "listed apart in the source", "description": "Efflux ratio of permeability in human Caco2 cells measured up to 2 hrs by LC-MS/MS analysis or scintillation counting method"}, "[8]": {"assay": "Equilibrium thermodynamic aqueous solubility of the compound in pH 2 buffer incubated for 24 hrs by UV-spectroscopy based shake flask method", "format": "physicochemical", "details": "read-out: Therm_solubility"}, "[9]": {"details": "168 h", "description": "Chemical stability of the compound in MeOH/NH3 solution at pH >10 assessed as compound decomposition measured after 7 days by UV-RP-HPLC analysis"}, "[10]": {"assay": "physchem", "details": "octanol/water, pH 2", "description": "Octanol/water partition coefficient, log D of the compound at pH 2"}, "[11]": {"assay": "physchem", "details": "MeOH/HCl solution", "description": "Chemical stability of the compound in MeOH/HCl solution at pH <1 assessed as compound decomposition measured after 7 days by UV-RP-HPLC analysis"}, "[12]": {"assay": "Equilibrium thermodynamic aqueous solubility of the compound in pH 2.1 buffer incubated for 24 hrs by UV-spectroscopy based shake flask method", "format": "physicochemical", "details": "read-out: Therm_solubility"}, "[13]": {"details": "24 h", "description": "Chemical stability of the compound in MeOH/NH3 solution at pH >10 assessed as compound decomposition measured after 1 day by UV-RP-HPLC analysis"}, "[14]": {"assay": "physchem", "details": "octanol/water, pH 11", "description": "Octanol/water partition coefficient, log D of the compound at pH 11"}, "[15]": {"assay": "Basic dissociation constant, pKb of the compound by UV absorption spectra analysis or potentiometric titration technique", "format": "physicochemical"}, "[16]": {"assay": "Chemical stability of the compound in MeOH/H2O solution at pH >10 assessed as compound decomposition measured after 1 day by UV-RP-HPLC analysis", "format": "physicochemical", "details": "read-out: Drug degradation"}, "[17]": {"assay": "Chemical stability of the compound in MeOH/HCl solution at pH <1 assessed as compound decomposition measured after 1 day by UV-RP-HPLC analysis", "format": "physicochemical", "details": "read-out: Drug degradation"}, "[18]": {"assay": "Acid dissociation constant, pKa1 of the compound by UV absorption spectra analysis or potentiometric titration technique", "format": "physicochemical"}, "[19]": {"assay": "Acid dissociation constant, pKa2 of the compound by UV absorption spectra analysis or potentiometric titration technique", "format": "physicochemical"}, "[20]": {"assay": "Equilibrium thermodynamic aqueous solubility of the compound in pH 2.3 buffer incubated for 24 hrs by UV-spectroscopy based shake flask method", "format": "physicochemical", "details": "read-out: Therm_solubility"}, "[21]": {"assay": "Equilibrium thermodynamic aqueous solubility of the compound in pH 5.9 buffer incubated for 24 hrs by UV-spectroscopy based shake flask method", "format": "physicochemical", "details": "read-out: Therm_solubility"}},
  "data": [
    {"smiles": "O=C(O)c1ccc(C(F)(F)F)cc1", "values": [
      {"measurement": "pKa", "setting": "[1]", "result": 3.5},
      {"measurement": "half-life at 1 µM", "setting": "[2]", "result": "> 2.17", "unit": "h"},
      {"measurement": "hepatic extraction ratio at 1 µM", "setting": "[3]", "result": "< 0.23"},
      {"measurement": "solubility thermodynamic at 24 h", "setting": "[4]", "result": "> 0.048", "unit": "mg/mL"},
      {"measurement": "solubility thermodynamic at 24 h", "setting": "[5]", "result": "> 10", "unit": "mg/mL"},
      {"measurement": "Papp A→B at 2 h", "setting": "[6]", "result": 150, "unit": "nm/s"},
      {"measurement": "efflux ratio at 2 h", "setting": "[7]", "result": 1.3}
    ]},
    {"smiles": "COP(=O)(O)c1ccc(C(F)(F)F)cc1", "values": [
      {"measurement": "solubility thermodynamic at 24 h", "setting": "[8]", "result": 27.3, "unit": "mg/mL"},
      {"measurement": "Drug degradation", "setting": "[9]", "result": "< 10", "unit": "%"},
      {"measurement": "logD", "setting": "[10]", "result": 1.3},
      {"measurement": "half-life at 1 µM", "setting": "[2]", "result": "> 2.17", "unit": "h"},
      {"measurement": "hepatic extraction ratio at 1 µM", "setting": "[3]", "result": "< 0.23"},
      {"measurement": "solubility thermodynamic at 24 h", "setting": "[4]", "result": "> 0.06", "unit": "mg/mL"},
      {"measurement": "degraded at 168 h", "setting": "[11]", "result": "< 10", "unit": "%"}
    ]},
    {"smiles": "O=P(O)(OCCO)c1ccc(C(F)(F)F)cc1", "values": [
      {"measurement": "solubility thermodynamic at 24 h", "setting": "[12]", "result": "> 28.5", "unit": "mg/mL"},
      {"measurement": "Drug degradation", "setting": "[9]", "result": "< 10", "unit": "%"},
      {"measurement": "solubility thermodynamic at 24 h", "setting": "[4]", "result": "> 0.063", "unit": "mg/mL"},
      {"measurement": "degraded at 168 h", "setting": "[11]", "result": "< 10", "unit": "%"}
    ]},
    {"smiles": "O=P1(c2ccc(C(F)(F)F)cc2)OCCCO1", "values": [
      {"measurement": "Drug degradation", "setting": "[9]", "result": 70, "unit": "%"},
      {"measurement": "Drug degradation", "setting": "[13]", "result": "> 90", "unit": "%"},
      {"measurement": "logD", "setting": "[10]", "result": 2.1},
      {"measurement": "logD", "setting": "[14]", "result": 1.5},
      {"measurement": "half-life at 1 µM", "setting": "[2]", "result": "> 2.17", "unit": "h"},
      {"measurement": "hepatic extraction ratio at 1 µM", "setting": "[3]", "result": "< 0.23"},
      {"measurement": "solubility thermodynamic at 24 h", "setting": "[4]", "result": "> 0.066", "unit": "mg/mL"},
      {"measurement": "solubility thermodynamic at 24 h", "setting": "[5]", "result": 8.8, "unit": "mg/mL"},
      {"measurement": "Papp A→B at 2 h", "setting": "[6]", "result": 950, "unit": "nm/s"},
      {"measurement": "efflux ratio at 2 h", "setting": "[7]", "result": 0.4},
      {"measurement": "degraded at 168 h", "setting": "[11]", "result": "< 10", "unit": "%"}
    ]},
    {"smiles": "O=P1(c2ccc(C(F)(F)F)cc2)OCCNCCO1", "values": [
      {"measurement": "pKb", "setting": "[15]", "result": 6},
      {"measurement": "degraded at 24 h", "setting": "[16]", "result": 20, "unit": "%"},
      {"measurement": "logD", "setting": "[10]", "result": 0.5},
      {"measurement": "logD", "setting": "[14]", "result": 1.5},
      {"measurement": "half-life at 1 µM", "setting": "[2]", "result": "> 2.17", "unit": "h"},
      {"measurement": "hepatic extraction ratio at 1 µM", "setting": "[3]", "result": "< 0.23"},
      {"measurement": "solubility thermodynamic at 24 h", "setting": "[4]", "result": 0.066, "unit": "mg/mL"},
      {"measurement": "solubility thermodynamic at 24 h", "setting": "[5]", "result": "> 10", "unit": "mg/mL"},
      {"measurement": "Papp A→B at 2 h", "setting": "[6]", "result": 630, "unit": "nm/s"},
      {"measurement": "efflux ratio at 2 h", "setting": "[7]", "result": 0.7},
      {"measurement": "degraded at 168 h", "setting": "[11]", "result": "< 10", "unit": "%"}
    ]},
    {"smiles": "O=P1(c2ccc(C(F)(F)F)cc2)NCCCO1", "note": "(configuration not stated)", "values": [
      {"measurement": "degraded at 24 h", "setting": "[17]", "result": "> 90", "unit": "%"},
      {"measurement": "Drug degradation", "setting": "[13]", "result": "> 90", "unit": "%"},
      {"measurement": "logD", "setting": "[10]", "result": 2},
      {"measurement": "logD", "setting": "[14]", "result": 1.3},
      {"measurement": "half-life at 1 µM", "setting": "[2]", "result": "> 2.17", "unit": "h"},
      {"measurement": "hepatic extraction ratio at 1 µM", "setting": "[3]", "result": "< 0.23"},
      {"measurement": "solubility thermodynamic at 24 h", "setting": "[4]", "result": "> 0.06", "unit": "mg/mL"},
      {"measurement": "Papp A→B at 2 h", "setting": "[6]", "result": 570, "unit": "nm/s"},
      {"measurement": "efflux ratio at 2 h", "setting": "[7]", "result": 0.7}
    ]},
    {"smiles": "O=P(O)(O)c1ccc(C(F)(F)F)cc1", "values": [
      {"measurement": "pKa", "setting": "[18]", "result": "< 2"},
      {"measurement": "pKa", "setting": "[19]", "result": 6.8},
      {"measurement": "solubility thermodynamic at 24 h", "setting": "[20]", "result": 17.8, "unit": "mg/mL"},
      {"measurement": "Drug degradation", "setting": "[9]", "result": "< 10", "unit": "%"},
      {"measurement": "logD", "setting": "[10]", "result": 0.6},
      {"measurement": "logD", "setting": "[14]", "result": "< -1.6"},
      {"measurement": "solubility thermodynamic at 24 h", "setting": "[4]", "result": "> 0.054", "unit": "mg/mL"},
      {"measurement": "degraded at 168 h", "setting": "[11]", "result": "< 10", "unit": "%"}
    ]},
    {"smiles": "CCOP(=O)(O)c1ccc(C(F)(F)F)cc1", "values": [
      {"measurement": "solubility thermodynamic at 24 h", "setting": "[12]", "result": 280, "unit": "mg/mL"},
      {"measurement": "Drug degradation", "setting": "[9]", "result": "< 10", "unit": "%"},
      {"measurement": "logD", "setting": "[10]", "result": 1.9},
      {"measurement": "logD", "setting": "[14]", "result": -0.8},
      {"measurement": "half-life at 1 µM", "setting": "[2]", "result": "> 2.17", "unit": "h"},
      {"measurement": "hepatic extraction ratio at 1 µM", "setting": "[3]", "result": "< 0.23"},
      {"measurement": "solubility thermodynamic at 24 h", "setting": "[4]", "result": "> 0.064", "unit": "mg/mL"},
      {"measurement": "Papp A→B at 2 h", "setting": "[6]", "result": 100, "unit": "nm/s"},
      {"measurement": "efflux ratio at 2 h", "setting": "[7]", "result": "< 0.1"},
      {"measurement": "degraded at 168 h", "setting": "[11]", "result": "< 10", "unit": "%"}
    ]},
    {"smiles": "CC1(C)COP(=O)(c2ccc(C(F)(F)F)cc2)OC1", "values": [
      {"measurement": "Drug degradation", "setting": "[13]", "result": "> 90", "unit": "%"},
      {"measurement": "logD", "setting": "[10]", "result": 3.1},
      {"measurement": "logD", "setting": "[14]", "result": 2.6},
      {"measurement": "half-life at 1 µM", "setting": "[2]", "result": "> 2.17", "unit": "h"},
      {"measurement": "hepatic extraction ratio at 1 µM", "setting": "[3]", "result": "< 0.23"},
      {"measurement": "solubility thermodynamic at 24 h", "setting": "[4]", "result": "> 0.067", "unit": "mg/mL"},
      {"measurement": "solubility thermodynamic at 24 h", "setting": "[5]", "result": 2.8, "unit": "mg/mL"},
      {"measurement": "Papp A→B at 2 h", "setting": "[6]", "result": 730, "unit": "nm/s"},
      {"measurement": "efflux ratio at 2 h", "setting": "[7]", "result": 0.6},
      {"measurement": "degraded at 168 h", "setting": "[11]", "result": "< 10", "unit": "%"}
    ]},
    {"smiles": "CP(=O)(O)c1ccc(C(F)(F)F)cc1", "values": [
      {"measurement": "pKa", "setting": "[1]", "result": 2},
      {"measurement": "solubility thermodynamic at 24 h", "setting": "[21]", "result": "> 8.9", "unit": "mg/mL"},
      {"measurement": "Drug degradation", "setting": "[9]", "result": "< 10", "unit": "%"},
      {"measurement": "logD", "setting": "[10]", "result": 1.3},
      {"measurement": "logD", "setting": "[14]", "result": -1.3},
      {"measurement": "half-life at 1 µM", "setting": "[2]", "result": "> 2.17", "unit": "h"},
      {"measurement": "hepatic extraction ratio at 1 µM", "setting": "[3]", "result": "< 0.23"},
      {"measurement": "solubility thermodynamic at 24 h", "setting": "[4]", "result": "> 0.049", "unit": "mg/mL"},
      {"measurement": "Papp A→B at 2 h", "setting": "[6]", "result": "< 50", "unit": "nm/s"},
      {"measurement": "degraded at 168 h", "setting": "[11]", "result": "< 10", "unit": "%"}
    ]}
  ]
}
